The test system of test [1] is IL-1. As to the kind of experiment: IL-1 release inhibition (Table 2). Format: cell-based, human. How it is done: 10 ml of human blood were carefully drawn from the antecubital vein using a syringe containing 1 ml of a solution of 3.8% sodium citrate. After dilution with 10 ml PM 16 (Serva, Heidelberg, FRG) and underlayering with 15 ml Lymphoprep® (Molter GmbH), the sample was centrifuged at 400×g for 40 min at 20° C. The mononuclear cells forming a white ring between lymphoprep and plasma were carefully aspirated by a syringe, diluted 1:1 with PM 16 and centrifuged again at 400×g for 10 min. […] was washed with 10 ml RPMI 1640 (Gibco, Berlin, FRG), containing additionally 300 mg/l L-glutamine, 25 mmol/l […] HEPES, 100 μg/ml streptomycin and 100 μg/ml penicillin. Finally, using a Coulter counter IT, the cell suspension was adjusted to 5×10^6 cells/ml. The cells consist of approx. 90% lymphocytes and 10% monocytes.
10 μl DMSO/water (1:10, v/v), containing the test compound, was added to 480 μl of a suspension, containing 5×10^6 mononuclear cells. The synthesis of IL-1 was stimulated by the addition of 10 μl DSMO/water (1:10, v/v), containing 0,5 μg LPS (Salmonella abortus equi, Sigma). After incubation at 37° C. for 18 hours, the samples were cooled to 0° C. and centrifuged for 1 min. in a table centrifuge. 25 μl aliquots of the supernatant were assayed for IL-1 alpha activity using a commercially available 125-J-IL-1-alpha radioimmunoassay Kit (Amersham/UK), and for IL-1 beta in a similar way using the specific test kit. Control experiments were performed as described without test compound, or with cycloheximide as a test compound.

In test [2] the test system is Cotton Pellet Granuloma in Rats. As to the kind of experiment: Inhibition of carrageenin cotton pellet granuloma in rats. As to conditions: 30 mg/kg, p.o. × 5. Format: in vivo, rat (Wistar). How it is done:
The implantation of carrageenin impregnated cotton pellets results in production of large, well-defined granuloma which are easily dissected. The potency of the compounds are assessed by measuring the reduction in granuloma tissue formation.
Cotton wool pellets weighing 40 mg were used for sterilization.
Pellets were dried overnight under a lamp. The pellets in the weight range of 42-44 mg were selected.
Rats (in groups of 6, male or female, Charles River, Wistar, weighing 140-150 g) were anaesthetized with ether. The back was shaved and cleaned; swabbed with alcohol and one centimeter incision was made in the lower midback. A small channel was made bilaterally using a blunt forceps and one cotton pellet placed in each channel. Air from the incision was removed and the wound was stitched. […] Three hours after the administration of the last dose on day 7, animals were sacrificed. The pellets were removed by cutting the skin along the dorsal midline and peeling the skin away from the bodywall in both lateral directions. The pellets were weighed and then placed in drying oven at 140° C. overnight. The dry weights were then recorded and the amount of granuloma was assessed by subtracting the original pellet weight from wet weights and dry weights. The data was evaluated using the difference of left and right weights (cf. Table 4).

Test [3] concerns experimental allergic encephalomyelitis (EAE) in guinea pigs. As to the kind of experiment: Experimental allergic encephalomyelitis (EAE) in guinea pigs. The class given is in vivo, guinea pig. The conditions noted are these: 100 mg/kg p.o. once daily for 10 days. The text has this:
This method permits the evaluation of the potential of the test compound in preventing the development of an autoimmune disorder leading to demyelination in the guinea pigs which can be equated to multiple sclerosis disease in humans. EAE is a reproducible chronic inflammatory autoimmune disease of the central nervous system in which an animal is immunized with either a homologous or heterologous extract of the whole brain and spinal cord, which contains the basic myelin protein together with Freund's Complete Adjuvant (FCA). A pathological condition would set in during ten to twenty days following immunization, which is characterized by weight loss, abnormal gait, mild to severe ataxia, paraparesis and moribund state leading to death. The potential of the test compounds to prevent this autoimmune condition was evaluated by observing the severity of the disease and mortality in comparison with untreated and hydrocortisone (standard drug) treated animals.
Guinea pigs (200-300 g) were randomly distributed into groups of 10 each after receiving 0.075 ml of it brain and spinal cord extract in FCA intradermally on the back and 0.050 ml intrapedally in one hind paw. Compound 9 of Table 2 was administered orally at 3 mg/kg once daily for 10 days. The standard compound was administered 100 mg/kg p.o. once daily for 10 days. The weights of the animals were noted every day. Eight days after the induction of the disease, the animals were rated regularly for the severity of the disease and mortality was monitored.

Test [4] concerns adjuvant arthritis in rats. Nature of the test: Adjuvant-induced arthritis in rats. The class given is in vivo, rat (female Wistar). As to conditions: 30 mg/kg orally once every day for 12 days, compared to control.
Where [5] appears, read: Homo sapiens, read-out: IL-1 Rel. Inhib.

Counter-ions that a name gives are not always drawn.

On to `COc1cc(OC)c([C@@H]2CCCC[C@H]2OC(C)=O)c(O)c1C(=O)/C=C/c1cccc(Br)c1` (relative stereo) [Compound 1 of Table 2], for which the inhibition at 10 µM in test [1] (setting [5]) is 41%.

Take `COc1cc(OC)c([C@@H]2CCCC[C@H]2O)c(O)c1C(=O)/C=C/c1cccc(N)c1` (relative stereo) [Compound 28 of Table 2]: in test [1] (setting [5]), the inhibition at 1 µM was 33%.

For `C[C@]12CCC(=O)C=C1CC[C@@H]1[C@@H]2[C@@H](O)C[C@@]2(C)[C@H]1CC[C@]2(O)C(=O)CO` [Hydrocortisone, reference compound], in test [2], the “% Inhibition of granuloma, Dry wt.” value came to 37.5% and the “% Inhibition of granuloma, Wet wt.” value was 20.5%. Besides, the “reduction in the mortality” value in test [3] turned out to be 21%.

As for `COc1cc(OC)c(C2CCCCC2)c(O)c1C(=O)/C=C/c1ccc(Cl)cc1` [Compound 22 of Table 2], in test [1] (Homo sapiens, 12 μM, read-out: IL-1 Rel. Inhib.), the inhibition at 12 µM turned out to be 30%.

Consider `COc1cc(OC)c([C@@H]2CCCC[C@H]2OC(=O)CN(C)C)c(O)c1C(=O)/C=C/c1cccc(Br)c1` (relative stereo) [Compound 2 of Table 2], for which the inhibition at 17 µM in test [1] (setting [5]) came to 50%.

On to `COc1cc(OC)c([C@H]2CCCC[C@H]2O)c(O)c1C(=O)/C=C/c1cccc(Br)c1` (relative stereo) [Compound 11 of Table 2, cis-(+/-)-2-[4,6-Dimethoxy-2-hydroxy-3-(3-(3-bromophenyl))prop-2-(E)-enoyl]phenylcyclohexanol], for which the inhibition at 10.8 µM in test [1] (Homo sapiens, 10.8 μM, read-out: IL-1 Rel. Inhib.) came out at 90%.

As for `COc1ccc(CCC(=O)c2c(OC)cc(OC)c([C@@H]3CCCC[C@H]3OC(=O)CN)c2O)cc1OC` (relative stereo) [Compound 19 of Table 2, trans-(+/-)-1-[4,6-Dimethoxy-2-hydroxy-3-(2-(β-amino)acetoxy)cyclohexyl]phenyl-(3-(3,4-dimethoxy)phenyl)propanone hydrochloride monohydrate], the inhibition at 10 µM in test [1] (setting [5]) is 51%.

As for `COc1cc(OC)c([C@H]2CCCC[C@@H]2OC(=O)CN)c(O)c1C(=O)/C=C/c1cccc(Br)c1` [Compound 6 of Table 2, trans-(+)-2-[4,6-Dimethoxy-2-hydroxy-3-(3-(3-bromophenyl)prop-2-(E)-enoyl)phenyl]cyclohexyl-2-amino acetate hydrochloride monohydrate], the inhibition at 1 µM in test [1] (setting [5]) came out at 88%.

In the case of `COc1cc(OC)c([C@@H]2CCCC[C@H]2OC(=O)CN)c(O)c1C(=O)/C=C/c1cccc(Br)c1` (relative stereo) [Compound 3 of Table 2, trans-(+/-)-2-[4,6-Dimethoxy-2-hydroxy-3-(3-(3-bromophenyl)prop-2-(E)-enoyl)phenyl]cyclohexyl-2-amino acetate hydrochloride monohydrate], the inhibition at 17 µM in test [1] (setting [5]) amounted to 63%.

With `COc1cc(OC)c([C@@H]2CCCC[C@H]2O)c(O)c1C(=O)CCc1cccc(Br)c1` (relative stereo) [Compound 12 of Table 2], in test [1] (Homo sapiens, 10.5 μM, read-out: IL-1 Rel. Inhib.), the inhibition at 10.5 µM came out at 26%.

For `COc1cc(OC)c([C@@H]2CCCC[C@H]2O)c(O)c1C(=O)/C=C/c1cccc(Br)c1` [Compound 14 of Table 2, trans-(-)-2-[4,6-Dimethoxy-2-hydroxy-3-(3-(3-bromophenyl))prop-2-(E)-enoyl]phenylcyclohexanol], in test [1] (setting [5]), the inhibition at 0.3 µM is 50%.

Take `COc1ccc([C@@H]2CCCC[C@H]2O)c(O)c1C(=O)/C=C/c1cccc(Br)c1.COc1ccc([C@@H]2CCCC[C@H]2O)c(O)c1C(=O)/C=C/c1cccc(Br)c1.O` (racemic) [Compound 18 of Table 2, trans-(+/-)-2-[2-Hydroxy-4-methoxy-3-(3-(3-bromophenyl))prop-2-(E)-enoyl)phenylcyclohexanol hemihydrate]: the “IL-1 Rel. Inhib.” value in test [1] (5 μM) is 71%.

Consider `COc1cc(/C=C/C(=O)c2c(OC)cc(OC)c([C@@H]3CCCC[C@H]3O)c2O)cc(Br)c1OC` (relative stereo) [Compound 26 of Table 2], for which, in test [1] (Homo sapiens, 9.5 μM, read-out: IL-1 Rel. Inhib.), the inhibition at 9.5 µM is 50%.

Take `COc1cc(OC)c([C@@H]2CCCC[C@H]2O)c(O)c1C(=O)/C=C/c1cccc(Br)c1` (relative stereo) [Compound 6 of Table 1]: the “reduction in the uninjected paw volume” value in test [4] is on record as “very slight reduction”.

Turning to `COc1cc(OC)c([C@@H]2CCCC[C@H]2OC(=O)CN)c(O)c1C(=O)/C=C/c1cccc(Br)c1` [Compound 5 of Table 2, trans-(-)-2-[4,6-Dimethoxy-2-hydroxy-3-(3-(3-bromophenyl)prop-2-(E)-enoyl)phenyl]cyclohexyl-2-amino acetate hydrochloride monohydrate], the inhibition at 1 µM in test [1] (setting [5]) is 95%.

With `COc1cc(O)c(C(=O)/C=C/c2cccc(Br)c2)c(OC)c1[C@@H]1CCCC[C@H]1O` (racemic) [Compound 17 of Table 2, trans-(+/-)-2-[2,6-Dimethoxy-4-hydroxy-3-(3-(3-bromophenyl))prop-2-(E)-enoyl]phenylcyclohexanol], in test [1] (10.8 μM), the “IL-1 Rel. Inhib.” value amounted to 71%.

Regarding `COc1cc(OC)c(C2CCCCC2OC(=O)[C@H](C)N)c(O)c1C(=O)/C=C/c1cccc(Br)c1` (mixture of isomers) [Compound 7 of Table 2, trans-(+/-)-2-[4,6-Dimethoxy-2-hydroxy-3-(3-(3-bromophenyl)prop-2-(E)-enoyl)phenyl]cyclohexyl-2-(S)-amino propanoate], in test [1] (setting [5]), the inhibition at 1 µM is 35%.

For the molecule `COc1cc(OC)c([C@@H]2CCCC[C@H]2OC(=O)CN2CCCCC2)c(O)c1C(=O)/C=C/c1cccc(Br)c1` (relative stereo) [Compound 4 of Table 2], the inhibition at 16 µM in test [1] (Homo sapiens, 16 μM, read-out: IL-1 Rel. Inhib.) amounted to 43%.

Consider `COc1ccc(C(=O)/C=C/c2cccc(Br)c2)c(O)c1[C@@H]1CCCC[C@H]1O` (racemic) [Compound 16 of Table 2, trans-(+/-)-2-[6-Methoxy-2-hydroxy-3-(3-(3-bromophenyl))prop-2-(E)-enoyl]phenylcyclohexanol], for which the “IL-1 Rel. Inhib.” value in test [1] (11.6 μM) was found to be 81%.

Turning to `COc1cc(OC)c([C@@H]2CCCC[C@H]2O)c(O)c1C(=O)/C=C/c1cc(C)ccc1C` (relative stereo) [Compound 21 of Table 2, trans-(+/-)-2-[4,6-Dimethoxy-2-hydroxy-3-(3-(2,5-dimethylphenyl))prop-2-(E)-enoyl]phenylcyclohexanol monohydrate], the inhibition at 10 µM in test [1] (setting [5]) was 96%.

Regarding `COc1cc(OC)c([C@@H]2CCCC[C@H]2O)c(O)c1C(=O)/C=C/c1cccc(C)c1` (relative stereo) [Compound 20 of Table 2], the inhibition at 10 µM in test [1] (setting [5]) was 49%.

Regarding `COc1cc(OC)c([C@H]2CCCC[C@@H]2O)c(O)c1C(=O)/C=C/c1cccc(Br)c1` [Compound 15 of Table 2, trans-(+)-2-[4,6-Dimethoxy-2-hydroxy-3-(3-(3-bromophenyl))prop-2-(E)-enoyl]phenylcyclohexanol], the inhibition at 0.3 µM in test [1] (setting [5]) was found to be 50%.
